Assay results from article PMC3651692 (Bioorganic & medicinal chemistry letters, 2013).

molecular target: μ-opioid receptor (MOR) (Homo sapiens, UniProt P35372); type: binding
Sequence (P35372 whole entry, species assumed): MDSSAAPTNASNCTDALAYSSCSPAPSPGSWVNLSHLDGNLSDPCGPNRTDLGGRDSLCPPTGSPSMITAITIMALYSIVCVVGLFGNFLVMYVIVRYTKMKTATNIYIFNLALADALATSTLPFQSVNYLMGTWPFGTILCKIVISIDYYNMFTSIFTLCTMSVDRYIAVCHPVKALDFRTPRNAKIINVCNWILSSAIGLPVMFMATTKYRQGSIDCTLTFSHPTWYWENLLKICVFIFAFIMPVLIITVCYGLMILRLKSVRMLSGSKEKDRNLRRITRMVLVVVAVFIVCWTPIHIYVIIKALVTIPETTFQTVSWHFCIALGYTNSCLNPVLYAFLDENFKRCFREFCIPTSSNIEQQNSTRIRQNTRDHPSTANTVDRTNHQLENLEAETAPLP

Structure (SMILES)	Affinities Ki± SD MOR
COC(=O)[C@@H]1C[C@H](OC(=O)/C=C\C(=O)O)C(=O)[C@H]2[C@@]1(C)CC[C@H]1C(=O)O[C@H](c3ccoc3)C[C@]21C [Compound 13]	no affinity

molecular target: κ-opioid receptor (KOR) (Homo sapiens, UniProt P41145); type: binding
Sequence (P41145 whole entry): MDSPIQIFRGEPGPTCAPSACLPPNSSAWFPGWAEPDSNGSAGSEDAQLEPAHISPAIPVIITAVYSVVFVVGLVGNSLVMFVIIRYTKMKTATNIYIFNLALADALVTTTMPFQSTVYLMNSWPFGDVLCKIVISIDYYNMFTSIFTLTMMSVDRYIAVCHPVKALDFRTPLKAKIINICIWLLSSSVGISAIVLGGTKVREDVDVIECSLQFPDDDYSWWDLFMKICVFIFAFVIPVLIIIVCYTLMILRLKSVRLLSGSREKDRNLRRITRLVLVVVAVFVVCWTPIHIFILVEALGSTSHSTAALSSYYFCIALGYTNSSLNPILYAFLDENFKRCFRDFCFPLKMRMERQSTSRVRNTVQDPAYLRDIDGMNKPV

Structure (SMILES)	Selectivity DOR/KOR	Selectivity MOR/KOR	Affinities Ki± SD KOR	Fold reduction of KOR affinity compared to 1 [fold]
COC(=O)[C@@H]1C[C@H](OC(=O)c2ccccc2C(=O)O)C(=O)[C@H]2[C@@]1(C)CC[C@H]1C(=O)O[C@H](c3ccoc3)C[C@]21C [Compound 16]	>4	>4		
COC(=O)[C@@H]1C[C@H](OC(=O)/C=C\C(=O)O)C(=O)[C@H]2[C@@]1(C)CC[C@H]1C(=O)O[C@H](c3ccoc3)C[C@]21C [Compound 13]			no affinity	
COC(=O)/C=C/C(=O)O[C@H]1C[C@@H](C(=O)OC)[C@]2(C)CC[C@H]3C(=O)O[C@H](c4ccoc4)C[C@]3(C)[C@H]2C1=O [Compound 14]	>256			6
COC(=O)CCCC(=O)O[C@H]1C[C@@H](C(=O)OC)[C@]2(C)CC[C@H]3C(=O)O[C@H](c4ccoc4)C[C@]3(C)[C@H]2C1=O [Compound 9]	>33			49
COC(=O)CC(=O)O[C@H]1C[C@@H](C(=O)OC)[C@]2(C)CC[C@H]3C(=O)O[C@H](c4ccoc4)C[C@]3(C)[C@H]2C1=O [Compound 4]		>5000		
COC(=O)[C@@H]1C[C@H](OC(=O)CCCC(=O)O)C(=O)[C@H]2[C@@]1(C)CC[C@H]1C(=O)O[C@H](c3ccoc3)C[C@]21C [Compound 12]	>38			
CCOC(=O)CCC(=O)O[C@H]1C[C@@H](C(=O)OC)[C@]2(C)CC[C@H]3C(=O)O[C@H](c4ccoc4)C[C@]3(C)[C@H]2C1=O [Compound 8]	>23	>23		70
CCOC(=O)CC(=O)O[C@H]1C[C@@H](C(=O)OC)[C@]2(C)CC[C@H]3C(=O)O[C@H](c4ccoc4)C[C@]3(C)[C@H]2C1=O [Compound 5]	>476	>476		3
COC(=O)[C@@H]1C[C@H](OC(=O)CC(=O)OC(C)(C)C)C(=O)[C@H]2[C@@]1(C)CC[C@H]1C(=O)O[C@H](c3ccoc3)C[C@]21C [Compound 6]	>67	>67		24
COC(=O)CCC(=O)O[C@H]1C[C@@H](C(=O)OC)[C@]2(C)CC[C@H]3C(=O)O[C@H](c4ccoc4)C[C@]3(C)[C@H]2C1=O [Compound 7]	>277	>277		6
CCOC(=O)/C=C/C(=O)O[C@H]1C[C@@H](C(=O)OC)[C@]2(C)CC[C@H]3C(=O)O[C@H](c4ccoc4)C[C@]3(C)[C@H]2C1=O [Compound 15]	>23			
COC(=O)CCCCC(=O)O[C@H]1C[C@@H](C(=O)OC)[C@]2(C)CC[C@H]3C(=O)O[C@H](c4ccoc4)C[C@]3(C)[C@H]2C1=O [Compound 10]	>17	>17		

molecular target: δ-opioid receptor (DOR) (Homo sapiens, UniProt P41143); type: binding
Sequence (P41143 whole entry): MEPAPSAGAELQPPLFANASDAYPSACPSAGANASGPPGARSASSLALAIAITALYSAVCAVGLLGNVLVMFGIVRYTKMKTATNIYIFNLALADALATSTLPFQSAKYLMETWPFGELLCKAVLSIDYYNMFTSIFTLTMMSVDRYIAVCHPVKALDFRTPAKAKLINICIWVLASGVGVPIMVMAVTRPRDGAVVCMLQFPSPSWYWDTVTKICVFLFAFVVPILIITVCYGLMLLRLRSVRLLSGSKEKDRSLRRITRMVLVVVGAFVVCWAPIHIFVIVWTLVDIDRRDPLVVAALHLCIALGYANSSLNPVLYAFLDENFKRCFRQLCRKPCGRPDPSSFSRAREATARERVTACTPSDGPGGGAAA

Structure (SMILES)	Affinities Ki± SD DOR
COC(=O)[C@@H]1C[C@H](OC(=O)/C=C\C(=O)O)C(=O)[C@H]2[C@@]1(C)CC[C@H]1C(=O)O[C@H](c3ccoc3)C[C@]21C [Compound 13]	no affinity
